Data as given in US10251394B2, “Molecules having pesticidal utility, and intermediates, compositions, and processes, related thereto” (Dow AgroSciences LLC, priority 2016, dated 2019).

How the values were obtained:
[1] = test system: Beet Armyworm (Spodoptera exigua); test: Bioassay on Beet Armyworm (BAW), 128-well diet tray assay; assay type: in vivo; settings: Beet Armyworm, Table ABC, read-out: BAW rating
Procedure, shortened: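 Percent mortality, averaged over eight wells, was scored after five to seven days at 25° C under 14:10 light-dark. Each well's diet carried 50 μg/cm^2 of test molecule applied in acetone-water (90:10) and dried before one to five second-instar larvae were added.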

[2] = test system: Cabbage Looper (Trichoplusia ni); test: Bioassay on Cabbage Looper (CL), 128-well diet tray assay; assay type: in vivo; settings: Cabbage Looper, Table ABC, read-out: CL rating
Procedure, shortened: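 Mortality after five to seven days at 25° C (14:10 photoperiod), averaged over eight wells per compound. Diet in each well carried 50 μg/cm^2 of dried test molecule and received one to five second-instar larvae.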

Row | SMILES | pest or weed control at 50 µg/cm2 [1] [%] | pest or weed control at 50 µg/cm2 [2] [%]
1 | CC[C@@H](NC(=O)c1ccc(/C(F)=C/C(c2cc(Cl)c(Cl)c(Cl)c2)C(F)(F)F)cc1C(F)(F)F)C(N)=O (stereo partly drawn) [F126, N—((R)-1-Amino-1-oxobutan-2-yl)-4-((Z)-1,4,4,4-tetrafluoro-3-(3,4,5-trichlorophenyl)but-1-en-1-yl)-2-(trifluoromethyl)benzamide] | 50 to 100 | 50 to 100
2 | NC(=O)CNC(=O)c1ccc(/C(F)=C/C(c2cc(Cl)c(Cl)c(Cl)c2)C(F)(F)F)cc1C(F)(F)F (centres unmarked) [F127, (Z)—N-(2-Amino-2-oxoethyl)-4-(1,4,4,4-tetrafluoro-3-(3,4,5-trichlorophenyl)but-1-en-1-yl)-2-(trifluoromethyl)benzamide] | 50 to 100 | 50 to 100
3 | CC(F)(F)C(/C=C(\F)c1ccc(C(=O)NC2(C(=O)NCC(F)(F)F)CC2)c(C(F)(F)F)c1)c1ccc(Cl)c(Cl)c1 (centres unmarked) [F128, (Z)-4-(3-(3,4-Dichlorophenyl)-1,4,4-trifluoropent-1-en-1-yl)-N-(1-((2,2,2-trifluoroethyl)carbamoyl)cyclopropyl)-2-(trifluoromethyl)benzamide] | 50 to 100 | 50 to 100
4 | CC(F)(F)C(/C=C(\F)c1ccc(C(=O)NCC(=O)NCC(F)(F)F)c(C(F)(F)F)c1)c1ccc(Cl)c(Cl)c1 (centres unmarked) [F129, (Z)-4-(3-(3,4-Dichlorophenyl)-1,4,4-trifluoropent-1-en-1-yl)-N-(2-oxo-2-((2,2,2-trifluoroethyl)amino)ethyl)-2-(trifluoromethyl)benzamide] | 50 to 100 | 50 to 100
5 | C[C@@H](NC(=O)c1ccc(/C(F)=C/C(c2cc(Cl)c(Cl)c(Cl)c2)C(F)(F)F)cc1C(F)(F)F)C(=O)/C=C/CC(F)(F)F (some centres unmarked) [F140] | 50 to 100 | 50 to 100
6 | C=C(C)c1c(Cl)cc(C(/C=C(\F)c2ccc(C(=O)N[C@H](C)C(=O)NCC(F)(F)F)c(C(F)(F)F)c2)C(F)(F)F)cc1Cl (stereo partly drawn) [F148, 4-((Z)-3-(3,5-Dichloro-4-(prop-1-en-2-yl)phenyl)-1,4,4,4-tetrafluorobut-1-en-1-yl)-N—((R)-1-oxo-1-((2,2,2-trifluoroethyl)amino)propan-2-yl)-2-(trifluoromethyl)benzamide] | 50 to 100 | 50 to 100
7 | O=C(N[C@@H]1CON(CC(F)(F)F)C1=O)c1ccc(/C(F)=C/C(c2ccc(F)c(C(F)(F)F)c2)C(F)(F)F)cc1C(F)(F)F (stereo partly drawn) [F150, N—((R)-3-Oxo-2-(2,2,2-trifluoroethyl)isoxazolidin-4-yl)-4-((2)-1,4,4,4-tetrafluoro-3-(4-fluoro-3-(trifluoromethyl)phenyl)but-1-en-1-yl)-2-(trifluoromethyl)benzamide] | 50 to 100 | 50 to 100
8 | C[C@@H](NC(=O)c1ccc(/C(F)=C/C(c2cc(F)c(F)c(Cl)c2)C(F)(F)F)cc1C(F)(F)F)C(=O)NCC(F)(F)F (stereo partly drawn) [F154, 4-((Z)-3-(3-Chloro-4,5-difluorophenyl)-1,4,4,4-tetrafluorobut-1-en-1-yl)-N—((R)-1-oxo-1-((2,2,2-trifluoroethyl)amino)propan-2-yl)-2-(trifluoromethyl)benzamide] | 50 to 100 | 50 to 100
9 | COc1ccc(C(/C=C(\F)c2ccc(C(=O)NCC(=O)NCC(F)(F)F)c(C(F)(F)F)c2)C(F)(F)F)cc1Cl (centres unmarked) [F158, (Z)-4-(3-(3-Chloro-4-methoxyphenyl)-1,4,4,4-tetrafluorobut-1-en-1-yl)-N-(2-oxo-2-((2,2,2-trifluoroethyl)amino)ethyl)-2-(trifluoromethyl)benzamide] | 50 to 100 | 50 to 100
10 | C[C@@H](NC(=O)c1ccc(/C(F)=C/C(c2ccc(OCC(F)(F)F)c(Cl)c2)C(F)(F)F)cc1C(F)(F)F)C(=O)NCC(F)(F)F (stereo partly drawn) [F162, 4-((Z)-3-(3-Chloro-4-(2,2,2-trifluoroethoxy)phenyl)-1,4,4,4-tetrafluorobut-1-en-1-yl)-N—((R)-1-oxo-1-((2,2,2-trifluoroethyl)amino)propan-2-yl)-2-(trifluoromethyl)benzamide] | 50 to 100 | 50 to 100
